Assay results taken from patent US20080255080A1, “Hydroquinone Ansamycin Formulations” (priority 2007, published 2008).

Assay: Solubility in aqueous solutions
Format: physicochemical
Protocol: The hydroquinones provided herein may be converted into salt form by reaction with an acid, or by reaction with an acid halide of an amino acid. In the examples, the C-17 alkyl amino group is protonated to generate a C-17 ammonium salt hydroquinone geldanamycin analog. In addition, the C-17 ammonium salt hydroquinones formed have the added benefit of being highly soluble in aqueous solutions (solubility >200 mg/mL), unlike 17-AAG (solubility <100 μg/mL).

solubility: < 100 µg/mL
SMILES: C=CCNC1=C2C[C@@H](C)C[C@H](OC)[C@H](O)[C@@H](C)/C=C(\C)[C@H](OC(N)=O)[C@@H](OC)/C=C\C=C(/C)C(=O)NC(=CC1=O)C2=O [Compound 17-AAG]
